“Also recorded” adds a separate entry of the source. Read-outs that look alike come from different tables or passages of the source.
What was measured:
[1] = target: SARS-CoV-2 helicase (nsp13) (Severe acute respiratory syndrome coronavirus 2, UniProt P0DTD1); assay: biochemical; assay type: biochemical; conditions: for inhibition at 2.5 µM: read-out: DTT Helicase unwinding inhibition [%] 2.5 µM triplicates
RdRp complex = RdRp complex (Severe acute respiratory syndrome coronavirus 2, UniProt P0DTD1); assay type: binding, SARS-CoV-2
GTPase dynamin = conditions: read-out: IC50 GTPase dynamin; ref Medchemexpress, 2023; cited from earlier work
[2] = target: SARS-CoV-2 RdRp nsp12/7/8 complex (Severe acute respiratory syndrome coronavirus 2, UniProt P0DTD1); assay: biochemical; assay type: biochemical; conditions: for IC50: RdRp IC50 [µM]; for inhibition at 20 µM: read-out: RdRp Inhibition [%] 20 µM (PS Inhibition RdRp [%])
[3] = target: SARS-CoV-2 nsp13 NTPase activity (Severe acute respiratory syndrome coronavirus 2, UniProt P0DTD1); assay: biochemical; assay type: biochemical
SARS-CoV-2 helicase = SARS-CoV-2 helicase (Severe acute respiratory syndrome coronavirus 2, UniProt P0DTD1); assay type: binding
SARS-CoV-2 RdRp = conditions: biochemical readout; ref Yin et al., 2021; cited from earlier work
[4] = read-out: Helicase Inhibition [%] 20 µM (PS Inhibition Helicase [%])

SMILES | inhibition at 20 µM [1, 4] [%] | PicoGreen effect [%] 20 µM (annealed dsDNA substrate) [%] | RdRp Tm °C 20 µM (RdRp complex) [°C] | RdRp Tm °C 100 µM (RdRp complex) [°C] | effect on RdRp melting temperature (RdRp complex) | change of RdRp IC50 with increasing ATP concentration [2] | change of RdRp IC50 with increasing oligo-U concentration [2] | IC50 [2] [µM] | inhibition at 20 µM [2] [%] | DTT nsp13 inhibition [%] 20 µM (DTT HC Helicase inhibition [%]) [1] [%] | inhibition at 2.5 µM [1] [%] | DTT Helicase ATPase activity PLUS DNA substrate 2 µM [3] | DTT Helicase ATPase activity [%] 2 µM [3] [%] | Helicase Tm °C 20 µM (SARS-CoV-2 helicase) [°C] | Helicase Tm °C 100 µM (SARS-CoV-2 helicase) [°C] | effect on helicase Tm (SARS-CoV-2 helicase) | further results
O=C(N/N=C/c1ccc(O)c(O)c1)c1cc2ccccc2cc1O [dynasore] | 7.02 | 6.63 | 43.3 | 44.5 | concentration-dependent protein stabilizing effect | did not detect any change | gain of potency in the presence of 3 µM oligo-U | 6.22 | 96.1 | – | – | – | – | – | – | – | increase of Tm of RdRp (RdRp complex): about 1.5 K; IC50 (GTPase dynamin): 15 µM
O=c1c(O)c(-c2ccc(O)c(O)c2)oc2cc(O)ccc12 [fisetin (fustel), fisetin] | 39.3 | 4.99 | 42.7 | 43.5 | – | – | – | 2.17 | 95.8 | – | – | – | – | – | – | – | –
O=c1c(O)c(-c2cc(O)c(O)c(O)c2)oc2cc(O)cc(O)c12 [myricetin (cannabiscetin), myricetin] | 100 | – | 42.7 | 43.6 | no shift in Tm | – | – | – | – | 67.25 | 22.1 | 77.50 | 62.36 | 38.3 | 38.8 | did not result in a Tm change | inhibition at 20 µM ([1]; read-out: DTT nsp13 inhibition [%] 20 µM (DTT HC Helicase inhibition [%])): > 50%
Cc1ccc(C(=O)Nc2ccc(S(=O)(=O)O)c3cc(S(=O)(=O)O)cc(S(=O)(=O)O)c23)cc1NC(=O)c1cccc(NC(=O)Nc2cccc(C(=O)Nc3cc(C(=O)Nc4ccc(S(=O)(=O)O)c5cc(S(=O)(=O)O)cc(S(=O)(=O)O)c45)ccc3C)c2)c1 [suramin hexasodium] | 98 | – | 44.3 | 46.6 | increase in melting temperature; also recorded: concentration-dependent protein stabilizing effect | no changes in IC50 | no changes in IC50 | 0.24 | – | 92.60 | 53.1 | 63.38 | 121.61 | 36.8 | 36.5 | decrease in Tm | IC50 ([1]; DTT Helicase IC50 [µM]): 5.42 µM; fold stronger inhibition of SARS-CoV-2 RdRp compared to Remdesivir (SARS-CoV-2 RdRp): 20 fold; inhibition of helicase NTPase activity, 2 mM DTT [3]: only active in presence of dsDNA substrate; inhibition of helicase NTPase activity, absence of DTT [3]: showed inhibition in absence of DTT, independent of the presence of the dsDNA substrate; RdRp Inhibition [%] 20 µM (PS Inhibition RdRp [%]) [2]: 98.49%

Reference: paper PMC10958470 (Virus Research, 2024)
